PubChem BioAssay AID2060336 (Molecular Pharmacology Branch, DTP, NCI, 2025)
Values joined by “and” are separate entries in the source; they are usually repeats but may differ in a detail not shown here. Identical values can stand only once.

Test system: 958767-090-R-J1-PDC spheroid growth
Assay: Anticancer human tumor 958767-090-R-J1-PDC patient-derived head and neck squamous carcinoma cell line growth inhibition [IpAb]
Conditions: spheroids with HUVEC and MSC; for viability, T/C: stronger effect = lower value
In short: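 Multi-cell spheroids of 60% tumour cells, 25% HUVEC and 15% MSC in ultra-low-attachment U-bottom wells, treated with agents combined with ipatasertib or abemaciclib. Half-log ranges top out near clinical Cmax, or 10 microM when Cmax is unknown.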

[1] = curve of first compound, second compound 0.01 µM
[2] = curve of first compound, second compound 0.0316 µM
[3] = curve of first compound, second compound 0.1 µM
[4] = curve of first compound, second compound 0.316 µM
[5] = curve of first compound, second compound 1 µM
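Also: spheroids exposed to agents for 7 days.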
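For viability, T/C in this document: 100% = DMSO vehicle control wells.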

Question: For `CC(C)n1nc(-c2ccc3oc(N)nc3c2)c2c(N)ncnc21` + CCN1CCN(Cc2ccc(Nc3ncc(F)c(-c4cc(F)c5nc(C)n(C(C)C)c5c4)n3)nc2)CC1, which IC50 [1] is on record?
Answer: 15.7 nM

Question: And the IC50 [2]?
Answer: 13.5 nM

Question: And the IC50 [3]?
Answer: 22.8 nM

Question: What about the IC50 [4] of the same compound?
Answer: 24.8 nM

Question: What about the IC50 [5] of the same compound?
Answer: > 100 nM

Question: What about the viability, T/C (second compound 0.01 µM, first compound 0.000316 µM) of the same compound?
Answer: 91.4%

Question: And the viability, T/C (second compound 0.01 µM, first compound 0.001 µM)?
Answer: 92.4%

Question: And the viability, T/C (second compound 0.01 µM, first compound 0.00316 µM)?
Answer: 84.2%

Question: What about the viability, T/C (second compound 0.01 µM, first compound 0.01 µM) of the same compound?
Answer: 57.2%

Question: And the viability, T/C (second compound 0.01 µM, first compound 0.0316 µM)?
Answer: 39.2%

Question: And the viability, T/C (second compound 0.01 µM, first compound 0.1 µM)?
Answer: 33.8%

Question: And the viability, T/C (second compound 0.0316 µM, first compound 0.000316 µM)?
Answer: 79.5%

Question: And the viability, T/C (second compound 0.0316 µM, first compound 0.001 µM)?
Answer: 80.5%

Question: And the viability, T/C (second compound 0.0316 µM, first compound 0.00316 µM)?
Answer: 82.6%

Question: And the viability, T/C (second compound 0.0316 µM, first compound 0.01 µM)?
Answer: 54.1%

Question: And the viability, T/C (second compound 0.0316 µM, first compound 0.0316 µM)?
Answer: 40.5%

Question: What about the viability, T/C (second compound 0.0316 µM, first compound 0.1 µM) of the same compound?
Answer: 36.7%

Question: And the viability, T/C (second compound 0.1 µM, first compound 0.000316 µM)?
Answer: 68.7%

Question: What about the viability, T/C (second compound 0.1 µM, first compound 0.001 µM) of the same compound?
Answer: 73.1%

Question: And the viability, T/C (second compound 0.1 µM, first compound 0.00316 µM)?
Answer: 70.3%

Question: And the viability, T/C (second compound 0.1 µM, first compound 0.01 µM)?
Answer: 61.6%

Question: And the viability, T/C (second compound 0.1 µM, first compound 0.0316 µM)?
Answer: 45.5%

Question: And the viability, T/C (second compound 0.1 µM, first compound 0.1 µM)?
Answer: 35.4%

Question: What about the viability, T/C (second compound 0.316 µM, first compound 0.000316 µM) of the same compound?
Answer: 70.6%

Question: And the viability, T/C (second compound 0.316 µM, first compound 0.001 µM)?
Answer: 56.9%

Question: What about the viability, T/C (second compound 0.316 µM, first compound 0.00316 µM) of the same compound?
Answer: 66.1%

Question: What about the viability, T/C (second compound 0.316 µM, first compound 0.01 µM) of the same compound?
Answer: 54.1%

Question: And the viability, T/C (second compound 0.316 µM, first compound 0.0316 µM)?
Answer: 48.8%

Question: And the viability, T/C (second compound 0.316 µM, first compound 0.1 µM)?
Answer: 40%

Question: What about the viability, T/C (second compound 1 µM, first compound 0.000316 µM) of the same compound?
Answer: 78.3%

Question: What about the viability, T/C (second compound 1 µM, first compound 0.001 µM) of the same compound?
Answer: 75.9%

Question: And the viability, T/C (second compound 1 µM, first compound 0.00316 µM)?
Answer: 64.8%

Question: What about the viability, T/C (second compound 1 µM, first compound 0.01 µM) of the same compound?
Answer: 68.4%

Question: And the viability, T/C (second compound 1 µM, first compound 0.0316 µM)?
Answer: 65.5%

Question: What about the viability, T/C (second compound 1 µM, first compound 0.1 µM) of the same compound?
Answer: 50.7%

Question: What does the source list for `CC(=O)c1c(C)c2cnc(Nc3ccc(N4CCNCC4)cn3)nc2n(C2CCCC2)c1=O` + CCN1CCN(Cc2ccc(Nc3ncc(F)c(-c4cc(F)c5nc(C)n(C(C)C)c5c4)n3)nc2)CC1?
Answer: IC50 [1]: > 300 nM; IC50 [2]: > 300 nM; IC50 [3]: 137 nM; IC50 [4]: 265 nM; IC50 [5]: > 300 nM; viability, T/C (second compound 0.01 µM, first compound 0.000949 µM): 80.7%; viability, T/C (second compound 0.01 µM, first compound 0.003 µM): 72.5%; viability, T/C (second compound 0.01 µM, first compound 0.00949 µM): 66.5%; viability, T/C (second compound 0.01 µM, first compound 0.03 µM): 64.3%; viability, T/C (second compound 0.01 µM, first compound 0.0949 µM): 59.6%; viability, T/C (second compound 0.01 µM, first compound 0.3 µM): 53.4%; viability, T/C (second compound 0.0316 µM, first compound 0.000949 µM): 73.8%; viability, T/C (second compound 0.0316 µM, first compound 0.003 µM): 75.5%; viability, T/C (second compound 0.0316 µM, first compound 0.00949 µM): 54.2%; viability, T/C (second compound 0.0316 µM, first compound 0.03 µM): 53.8%; viability, T/C (second compound 0.0316 µM, first compound 0.0949 µM): 56.5%; viability, T/C (second compound 0.0316 µM, first compound 0.3 µM): 49.7%; viability, T/C (second compound 0.1 µM, first compound 0.000949 µM): 61.5%; viability, T/C (second compound 0.1 µM, first compound 0.003 µM): 56.2%; viability, T/C (second compound 0.1 µM, first compound 0.00949 µM): 65.7%; viability, T/C (second compound 0.1 µM, first compound 0.03 µM): 53.6%; viability, T/C (second compound 0.1 µM, first compound 0.0949 µM): 44.4%; viability, T/C (second compound 0.1 µM, first compound 0.3 µM): 50.9%; viability, T/C (second compound 0.316 µM, first compound 0.000949 µM): 54.2%; viability, T/C (second compound 0.316 µM, first compound 0.003 µM): 50.7%; viability, T/C (second compound 0.316 µM, first compound 0.00949 µM): 57.2%; viability, T/C (second compound 0.316 µM, first compound 0.03 µM): 52.9%; viability, T/C (second compound 0.316 µM, first compound 0.0949 µM): 51.1%; viability, T/C (second compound 0.316 µM, first compound 0.3 µM): 47.9%; viability, T/C (second compound 1 µM, first compound 0.000949 µM): 65.2%; viability, T/C (second compound 1 µM, first compound 0.003 µM): 63.8%; viability, T/C (second compound 1 µM, first compound 0.00949 µM): 60.6%; viability, T/C (second compound 1 µM, first compound 0.03 µM): 65.2%; viability, T/C (second compound 1 µM, first compound 0.0949 µM): 62.2%; viability, T/C (second compound 1 µM, first compound 0.3 µM): 53.1%

Question: How did the viability, T/C (compound 0.000949 µM) turn out when `CC(=O)c1c(C)c2cnc(Nc3ccc(N4CCNCC4)cn3)nc2n(C2CCCC2)c1=O` was run?
Answer: 76.6% and 103%

Question: And the viability, T/C (compound 0.003 µM)?
Answer: 66.5% and 83.4%

Question: What about the viability, T/C (compound 0.00949 µM) of the same compound?
Answer: 62.2% and 75.6%

Question: And the viability, T/C (compound 0.03 µM)?
Answer: 62.2% and 68.8%

Question: What about the viability, T/C (compound 0.0949 µM) of the same compound?
Answer: 63.7% and 65.3%

Question: And the viability, T/C (compound 0.3 µM)?
Answer: 54.1% and 51.8%

Question: What about the IC50 (curve of compound) of the same compound?
Answer: > 300 nM

Question: What does the source list for `CCN1CCN(Cc2ccc(Nc3ncc(F)c(-c4cc(F)c5nc(C)n(C(C)C)c5c4)n3)nc2)CC1`?
Answer: viability, T/C (compound 0.1 µM): 63.6% [middle of 13 runs]; viability, T/C (compound 1 µM): 80.7% [middle of 12 runs]; IC50 (compound alone, run of 06/01/2021): > 1000 nM
